The text below walks through data of ChEMBL document CHEMBL1152560, “Substituted 2-arylbenzothiazoles as kinase inhibitors: hit-to-lead optimization” (Bioorg Med Chem, 2009).

The target in assay [1] is Casein kinase I isoform epsilon (Homo sapiens) (UniProt P49674). As to the kind of experiment: Residual activity of CK1epsilon at 1 uM by microplate scintillation counting.
Assay [2] concerns the target Casein kinase I isoform gamma-1 (Homo sapiens) (UniProt Q9HCP0). As to the kind of experiment: Residual activity of CK1gamma1 at 1 uM by microplate scintillation counting.
The target of assay [3] is Ephrin type-A receptor 5 (Homo sapiens) (UniProt P54756). Briefly: Residual activity of EPHA5 at 1 uM by microplate scintillation counting.
For assay [4], the target named is Receptor tyrosine-protein kinase erbB-4 (Homo sapiens) (UniProt Q15303). As to the kind of experiment: Residual activity of ERBB4 at 1 uM by microplate scintillation counting.
Assay [5] concerns the target Insulin receptor-related protein (Homo sapiens) (UniProt P14616). As to the kind of experiment: Residual activity of INSRR at 0.1 uM by microplate scintillation counting.
For assay [6], the target named is Mitogen-activated protein kinase 8 (Homo sapiens) (UniProt P45983). As to the kind of experiment: Residual activity of JNK1 at 0.1 uM by microplate scintillation counting.
The target of assay [7] is Mast/stem cell growth factor receptor Kit (Homo sapiens) (UniProt P10721). Briefly: Residual activity of wild type KIT at 0.1 uM by microplate scintillation counting.
A short description of assay [8]: Residual activity of S6K at 1 uM by microplate scintillation counting.
In assay [9] the target is NT-3 growth factor receptor (Homo sapiens) (UniProt Q16288). As to the kind of experiment: Residual activity of TRK-C at 1 uM by microplate scintillation counting.
The target in assay [10] is Serine/threonine-protein kinase WNK3 (Homo sapiens) (UniProt Q9BYP7). As to the kind of experiment: Residual activity of WNK3 at 1 uM by microplate scintillation counting.
Assay [11] addresses T1, Inhibitor of nuclear factor kappa-B kinase subunit alpha (Homo sapiens) (UniProt O15111).
T1 sequence (whole entry): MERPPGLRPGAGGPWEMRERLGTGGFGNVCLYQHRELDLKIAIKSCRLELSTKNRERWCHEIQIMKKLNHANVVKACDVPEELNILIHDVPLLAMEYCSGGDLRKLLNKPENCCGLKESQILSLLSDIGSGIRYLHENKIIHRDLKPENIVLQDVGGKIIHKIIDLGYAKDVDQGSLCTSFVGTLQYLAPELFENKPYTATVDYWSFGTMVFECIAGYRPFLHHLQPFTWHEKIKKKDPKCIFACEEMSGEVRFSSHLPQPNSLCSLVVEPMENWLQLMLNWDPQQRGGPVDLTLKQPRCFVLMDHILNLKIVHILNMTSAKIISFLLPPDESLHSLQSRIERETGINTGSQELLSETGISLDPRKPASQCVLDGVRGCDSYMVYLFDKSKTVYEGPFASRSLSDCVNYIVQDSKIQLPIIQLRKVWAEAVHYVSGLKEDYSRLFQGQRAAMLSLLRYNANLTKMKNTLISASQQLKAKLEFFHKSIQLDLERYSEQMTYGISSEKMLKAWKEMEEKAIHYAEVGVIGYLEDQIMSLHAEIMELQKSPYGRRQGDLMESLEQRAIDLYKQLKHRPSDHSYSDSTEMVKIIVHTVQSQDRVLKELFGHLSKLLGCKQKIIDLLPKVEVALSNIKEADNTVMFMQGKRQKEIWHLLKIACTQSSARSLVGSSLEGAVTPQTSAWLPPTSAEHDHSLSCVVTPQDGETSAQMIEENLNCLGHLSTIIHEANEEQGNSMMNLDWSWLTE
Briefly: Residual activity of IKKalpha at 10 uM by microplate scintillation counting.

In assay [12] the target is Dual specificity tyrosine-phosphorylation-regulated kinase 1B (Homo sapiens) (UniProt Q9Y463). As to the kind of experiment: Residual activity of DYRK1B at 0.1 uM by microplate scintillation counting.
Assay [13] addresses T2, Phosphorylase b kinase gamma catalytic chain, liver/testis isoform (Homo sapiens) (UniProt P15735).
T2 sequence (whole entry): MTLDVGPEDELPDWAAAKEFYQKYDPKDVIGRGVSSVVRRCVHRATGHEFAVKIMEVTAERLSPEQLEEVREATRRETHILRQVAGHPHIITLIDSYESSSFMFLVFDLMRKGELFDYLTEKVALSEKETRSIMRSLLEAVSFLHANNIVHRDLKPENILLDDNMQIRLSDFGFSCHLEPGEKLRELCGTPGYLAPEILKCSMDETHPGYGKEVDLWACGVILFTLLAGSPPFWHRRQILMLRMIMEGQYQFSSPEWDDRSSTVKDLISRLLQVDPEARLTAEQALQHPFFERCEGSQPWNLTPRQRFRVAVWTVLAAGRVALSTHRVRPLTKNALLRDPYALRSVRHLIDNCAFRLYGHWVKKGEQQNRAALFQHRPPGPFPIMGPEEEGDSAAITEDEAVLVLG
Briefly: Residual activity of PHKG2 at 10 uM by microplate scintillation counting.

In assay [14] the target is T3, Activin receptor type-1B (Homo sapiens) (UniProt P36896).
T3 sequence (whole entry): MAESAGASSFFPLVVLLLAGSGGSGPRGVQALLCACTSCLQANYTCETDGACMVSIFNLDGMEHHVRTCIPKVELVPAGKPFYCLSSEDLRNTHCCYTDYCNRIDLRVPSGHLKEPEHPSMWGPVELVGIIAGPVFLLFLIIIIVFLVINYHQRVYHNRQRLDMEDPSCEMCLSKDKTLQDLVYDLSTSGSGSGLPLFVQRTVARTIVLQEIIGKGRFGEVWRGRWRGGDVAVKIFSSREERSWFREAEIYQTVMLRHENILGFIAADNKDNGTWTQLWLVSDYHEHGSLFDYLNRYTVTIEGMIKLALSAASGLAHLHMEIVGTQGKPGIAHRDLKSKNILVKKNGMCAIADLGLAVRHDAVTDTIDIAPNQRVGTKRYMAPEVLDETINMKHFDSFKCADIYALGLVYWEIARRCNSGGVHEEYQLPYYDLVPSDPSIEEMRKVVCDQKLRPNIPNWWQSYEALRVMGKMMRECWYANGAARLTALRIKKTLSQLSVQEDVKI
As to the kind of experiment: Residual activity of ACVR1B at 0.1 uM by microplate scintillation counting.

In assay [15] the test system is Serine/threonine-protein kinase B-raf (Homo sapiens), P15056 [V600E]. Briefly: Residual activity of B-RAF V600E mutant at 0.1 uM by microplate scintillation counting.
Assay [16] addresses Calcium/calmodulin-dependent protein kinase kinase 2 (Homo sapiens) (UniProt Q96RR4). Briefly: Residual activity of CAMKK2 at 0.1 uM by microplate scintillation counting.
Assay [17] deals with Protein kinase C beta type (Homo sapiens) (UniProt P05771). As to the kind of experiment: Residual activity of PKCbeta2 at 0.1 uM by microplate scintillation counting.
Assay [18] has as its target Serine/threonine-protein kinase PLK2 (Homo sapiens) (UniProt Q9NYY3). Briefly: Residual activity of SNK at 10 uM by microplate scintillation counting.
Assay [19] addresses Ribosomal protein S6 kinase alpha-1 (Homo sapiens) (UniProt Q15418). Briefly: Residual activity of RPS6KA1 at 0.1 uM by microplate scintillation counting.
Assay [20] concerns the target Vascular endothelial growth factor receptor 3 (Homo sapiens, UniProt P35916). As to the kind of experiment: Residual activity of VEGFR3 at 10 uM by microplate scintillation counting.

Sequence of Dual specificity tyrosine-phosphorylation-regulated kinase 1B (Homo sapiens) (Q9Y463 whole entry, looked up, canonical isoform): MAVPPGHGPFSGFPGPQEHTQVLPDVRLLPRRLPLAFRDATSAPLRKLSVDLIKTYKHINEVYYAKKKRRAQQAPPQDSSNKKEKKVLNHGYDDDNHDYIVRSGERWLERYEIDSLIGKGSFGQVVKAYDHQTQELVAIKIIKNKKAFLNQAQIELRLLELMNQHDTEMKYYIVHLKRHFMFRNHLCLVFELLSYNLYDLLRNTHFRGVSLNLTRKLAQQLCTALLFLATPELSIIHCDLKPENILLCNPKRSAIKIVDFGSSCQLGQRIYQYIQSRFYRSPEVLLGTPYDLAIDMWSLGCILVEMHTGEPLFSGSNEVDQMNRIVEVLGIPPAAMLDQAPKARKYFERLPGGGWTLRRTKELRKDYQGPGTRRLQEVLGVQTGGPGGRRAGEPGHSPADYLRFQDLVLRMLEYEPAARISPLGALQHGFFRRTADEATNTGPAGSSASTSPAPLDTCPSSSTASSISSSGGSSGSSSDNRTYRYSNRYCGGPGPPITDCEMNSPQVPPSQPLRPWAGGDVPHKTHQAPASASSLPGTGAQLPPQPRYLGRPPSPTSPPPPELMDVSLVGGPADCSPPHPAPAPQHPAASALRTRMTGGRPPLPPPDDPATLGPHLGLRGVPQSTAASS
Sequence of NT-3 growth factor receptor (Homo sapiens) (Q16288 32-839 limits assumed): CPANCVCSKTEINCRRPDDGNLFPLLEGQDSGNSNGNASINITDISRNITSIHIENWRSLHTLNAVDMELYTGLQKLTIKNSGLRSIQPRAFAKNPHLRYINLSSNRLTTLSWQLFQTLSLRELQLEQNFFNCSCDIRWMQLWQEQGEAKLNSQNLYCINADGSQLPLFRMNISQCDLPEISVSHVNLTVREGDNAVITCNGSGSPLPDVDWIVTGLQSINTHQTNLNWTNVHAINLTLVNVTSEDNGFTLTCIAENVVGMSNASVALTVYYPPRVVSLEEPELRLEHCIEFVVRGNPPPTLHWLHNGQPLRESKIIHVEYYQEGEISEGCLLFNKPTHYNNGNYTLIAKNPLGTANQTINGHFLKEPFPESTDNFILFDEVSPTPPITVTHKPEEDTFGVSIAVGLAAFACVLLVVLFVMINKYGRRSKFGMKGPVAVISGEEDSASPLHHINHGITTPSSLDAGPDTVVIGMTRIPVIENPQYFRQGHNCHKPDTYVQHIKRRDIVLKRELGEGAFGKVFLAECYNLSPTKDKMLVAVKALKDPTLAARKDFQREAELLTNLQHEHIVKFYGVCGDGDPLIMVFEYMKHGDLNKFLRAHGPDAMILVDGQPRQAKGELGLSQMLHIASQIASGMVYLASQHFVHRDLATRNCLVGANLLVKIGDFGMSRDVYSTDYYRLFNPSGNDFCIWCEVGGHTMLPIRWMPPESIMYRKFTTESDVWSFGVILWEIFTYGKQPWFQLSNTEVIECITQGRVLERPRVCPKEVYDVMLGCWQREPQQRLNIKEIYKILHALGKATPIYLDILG
Sequence of Insulin receptor-related protein (Homo sapiens) (P14616 27-742 limits assumed): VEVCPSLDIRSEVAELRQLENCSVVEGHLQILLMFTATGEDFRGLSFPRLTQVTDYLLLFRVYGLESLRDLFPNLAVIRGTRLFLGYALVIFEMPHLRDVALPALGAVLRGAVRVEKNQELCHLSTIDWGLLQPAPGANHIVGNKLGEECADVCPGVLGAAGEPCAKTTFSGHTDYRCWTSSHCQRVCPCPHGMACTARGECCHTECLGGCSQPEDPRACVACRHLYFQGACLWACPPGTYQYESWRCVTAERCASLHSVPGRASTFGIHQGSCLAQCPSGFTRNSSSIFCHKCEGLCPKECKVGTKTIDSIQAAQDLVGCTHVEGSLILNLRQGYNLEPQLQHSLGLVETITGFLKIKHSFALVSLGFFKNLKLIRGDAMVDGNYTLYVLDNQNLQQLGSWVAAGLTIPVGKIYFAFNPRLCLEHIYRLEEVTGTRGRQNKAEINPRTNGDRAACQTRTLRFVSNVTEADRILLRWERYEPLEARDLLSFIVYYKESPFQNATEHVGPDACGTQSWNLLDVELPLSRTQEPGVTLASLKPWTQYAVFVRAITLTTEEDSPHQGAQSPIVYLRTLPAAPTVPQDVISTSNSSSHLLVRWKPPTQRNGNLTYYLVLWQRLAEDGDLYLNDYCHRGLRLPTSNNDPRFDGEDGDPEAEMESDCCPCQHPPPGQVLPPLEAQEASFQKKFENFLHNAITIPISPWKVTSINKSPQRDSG
Sequence of Insulin receptor-related protein (Homo sapiens) (P14616 747-1297 limits assumed): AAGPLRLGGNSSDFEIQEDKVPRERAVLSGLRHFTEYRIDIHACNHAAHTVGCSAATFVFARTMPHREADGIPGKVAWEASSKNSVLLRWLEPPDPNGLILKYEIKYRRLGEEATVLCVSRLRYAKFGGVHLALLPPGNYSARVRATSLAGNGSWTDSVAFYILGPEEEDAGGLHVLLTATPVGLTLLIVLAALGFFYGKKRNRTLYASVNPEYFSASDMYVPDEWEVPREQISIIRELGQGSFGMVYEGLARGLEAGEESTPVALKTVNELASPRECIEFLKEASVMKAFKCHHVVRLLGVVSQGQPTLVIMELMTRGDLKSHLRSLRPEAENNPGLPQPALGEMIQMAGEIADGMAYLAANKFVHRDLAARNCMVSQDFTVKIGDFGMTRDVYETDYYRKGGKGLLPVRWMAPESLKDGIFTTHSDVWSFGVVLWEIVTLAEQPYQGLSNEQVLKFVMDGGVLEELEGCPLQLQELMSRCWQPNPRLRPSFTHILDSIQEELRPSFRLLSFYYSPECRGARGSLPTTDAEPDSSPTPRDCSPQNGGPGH
Sequence of Casein kinase I isoform epsilon (Homo sapiens) (P49674 whole entry, looked up, canonical isoform): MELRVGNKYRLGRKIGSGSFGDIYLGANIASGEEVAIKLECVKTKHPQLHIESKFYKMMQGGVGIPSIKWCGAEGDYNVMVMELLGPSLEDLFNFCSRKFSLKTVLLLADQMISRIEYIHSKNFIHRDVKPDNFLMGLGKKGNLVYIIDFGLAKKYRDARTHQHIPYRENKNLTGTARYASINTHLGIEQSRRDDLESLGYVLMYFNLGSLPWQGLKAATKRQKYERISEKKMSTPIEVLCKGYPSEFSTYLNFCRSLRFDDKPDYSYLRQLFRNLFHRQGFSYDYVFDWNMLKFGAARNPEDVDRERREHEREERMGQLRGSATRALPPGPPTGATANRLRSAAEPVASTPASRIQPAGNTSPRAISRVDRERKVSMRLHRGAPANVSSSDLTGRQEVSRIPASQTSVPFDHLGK
Sequence of Vascular endothelial growth factor receptor 3 (P35916 whole entry): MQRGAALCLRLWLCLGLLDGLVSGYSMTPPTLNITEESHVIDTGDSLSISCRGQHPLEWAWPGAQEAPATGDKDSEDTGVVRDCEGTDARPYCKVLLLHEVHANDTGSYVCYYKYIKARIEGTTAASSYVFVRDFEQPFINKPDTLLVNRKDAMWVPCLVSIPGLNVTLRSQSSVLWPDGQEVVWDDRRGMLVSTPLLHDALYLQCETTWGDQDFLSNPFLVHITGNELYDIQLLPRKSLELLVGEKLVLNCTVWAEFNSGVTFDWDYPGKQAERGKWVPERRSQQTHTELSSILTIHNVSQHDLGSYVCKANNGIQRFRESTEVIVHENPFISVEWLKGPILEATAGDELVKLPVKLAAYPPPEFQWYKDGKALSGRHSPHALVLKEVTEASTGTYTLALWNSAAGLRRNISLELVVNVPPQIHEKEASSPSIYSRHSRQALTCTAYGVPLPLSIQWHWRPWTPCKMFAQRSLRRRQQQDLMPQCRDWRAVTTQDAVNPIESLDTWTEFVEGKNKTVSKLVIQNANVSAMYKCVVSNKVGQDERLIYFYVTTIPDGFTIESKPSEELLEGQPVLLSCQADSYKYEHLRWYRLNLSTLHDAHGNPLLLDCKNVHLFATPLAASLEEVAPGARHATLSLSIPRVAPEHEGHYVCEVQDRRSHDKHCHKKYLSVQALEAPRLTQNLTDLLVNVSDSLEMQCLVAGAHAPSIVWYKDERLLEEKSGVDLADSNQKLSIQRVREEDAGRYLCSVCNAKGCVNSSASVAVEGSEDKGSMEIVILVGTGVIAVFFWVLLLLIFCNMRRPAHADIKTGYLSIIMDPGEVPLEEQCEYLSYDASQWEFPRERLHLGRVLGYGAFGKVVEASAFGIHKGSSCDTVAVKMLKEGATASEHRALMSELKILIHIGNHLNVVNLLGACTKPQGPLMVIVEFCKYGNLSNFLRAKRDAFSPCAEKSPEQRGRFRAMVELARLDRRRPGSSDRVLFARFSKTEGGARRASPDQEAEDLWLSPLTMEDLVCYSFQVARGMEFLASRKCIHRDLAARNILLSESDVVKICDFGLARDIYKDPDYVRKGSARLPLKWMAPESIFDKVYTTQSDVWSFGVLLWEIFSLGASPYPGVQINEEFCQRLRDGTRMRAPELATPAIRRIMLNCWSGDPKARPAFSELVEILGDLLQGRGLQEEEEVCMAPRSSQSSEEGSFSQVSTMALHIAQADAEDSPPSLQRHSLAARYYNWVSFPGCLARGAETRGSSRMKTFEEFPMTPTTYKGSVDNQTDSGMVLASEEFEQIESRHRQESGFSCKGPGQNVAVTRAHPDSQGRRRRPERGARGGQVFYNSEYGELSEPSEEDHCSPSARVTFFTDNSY
Sequence of Calcium/calmodulin-dependent protein kinase kinase 2 (Homo sapiens) (Q96RR4 2-588 limits assumed): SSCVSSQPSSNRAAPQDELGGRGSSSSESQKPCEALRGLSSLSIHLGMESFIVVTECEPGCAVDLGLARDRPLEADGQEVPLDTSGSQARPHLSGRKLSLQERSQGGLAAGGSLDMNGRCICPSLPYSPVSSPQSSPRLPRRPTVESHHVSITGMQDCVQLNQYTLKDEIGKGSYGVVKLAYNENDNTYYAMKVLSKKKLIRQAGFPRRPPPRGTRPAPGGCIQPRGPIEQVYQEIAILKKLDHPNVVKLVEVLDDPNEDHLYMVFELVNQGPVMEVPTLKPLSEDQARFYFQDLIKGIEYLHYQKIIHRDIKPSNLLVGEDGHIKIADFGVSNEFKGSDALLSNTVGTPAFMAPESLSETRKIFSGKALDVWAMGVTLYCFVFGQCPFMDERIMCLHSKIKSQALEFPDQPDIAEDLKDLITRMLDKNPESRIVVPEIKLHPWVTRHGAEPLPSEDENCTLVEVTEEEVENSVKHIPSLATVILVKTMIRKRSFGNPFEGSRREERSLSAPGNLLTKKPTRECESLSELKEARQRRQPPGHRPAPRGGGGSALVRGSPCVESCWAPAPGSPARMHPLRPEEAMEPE

Regarding `COc1cc2c(Oc3ccc(-c4nc5ccccc5s4)cc3)ncnc2cc1OCCCN1CCN(C)CC1`, the residual activity in assay [1] is 94%; in [2] it was 112%; in [3], 103%; in assay [4], 99%; in assay [5] it was 96%; in assay [6], 98%. For the same compound, the residual activity in assay [7] amounted to 96%; in [8] it was 69%; in assay [9], 104%; in assay [10], 64%; in assay [11], 130%; in assay [12], 104%. In addition, the residual activity worked out at 103% in assay [13]; 102% in assay [14]; 91% in assay [15]; 86% in assay [16]; 101% in assay [17]; 108% in assay [18]. In addition, the results for the residual activity in [19] and in [20] were 81% and 4%, respectively.

As for `COc1cc2c(Oc3ccc(-c4nc5ccccc5s4)cc3)ncnc2cc1OCCCN1CCCC1`, the residual activity in assay [1] stood at 107%; in assay [2], 97%; in assay [3], 119%; in [4], 109%; in assay [5], 97%; in assay [6], 106%. The residual activity in assay [7] worked out at 101%; in [8], 75%; in [9], 124%; in assay [10], 76%; in assay [11], 122%; in assay [12], 98%. In addition, the residual activity was determined as 93% in assay [13]; 100% in assay [14]; 92% in assay [15]; 91% in assay [16]; 99% in assay [17]; 120% in [18]. The residual activity in assay [19] amounted to 79%; in assay [20] it was 6%.

In the case of `COc1cc2c(Oc3ccc(-c4nc5ccccc5s4)cc3F)ncnc2cc1OCCCN1CCN(C)CC1`, the residual activity was found to be 101% in [1]; 110% in assay [2]; 95% in assay [3]; 103% in assay [4]; 116% in assay [5]; 101% in assay [6]. Further, the residual activity is 96% in assay [7]; 95% in assay [8]; 104% in assay [9]; 69% in [10]; 135% in assay [11]; 89% in assay [12]. Moreover, the residual activity in assay [13] turned out to be 88%; in assay [14], 97%; in [15], 96%; in assay [16], 84%; in [17], 87%; in [18] it was 99%. Further, the residual activity in [19] worked out at 86%; in [20], 4%.
